Entries after “also recorded” stand apart in the source; their conditions may differ.
Legend:
MPTP-induced toxicity = conditions: mice, cited from earlier work; for dopamine levels: MPTP
MAO-A [1] = target: T1, MAO-A (Homo sapiens, UniProt P21397); conditions: cited from earlier work
T1 construct: purchased
T1 sequence (P21397 1-527): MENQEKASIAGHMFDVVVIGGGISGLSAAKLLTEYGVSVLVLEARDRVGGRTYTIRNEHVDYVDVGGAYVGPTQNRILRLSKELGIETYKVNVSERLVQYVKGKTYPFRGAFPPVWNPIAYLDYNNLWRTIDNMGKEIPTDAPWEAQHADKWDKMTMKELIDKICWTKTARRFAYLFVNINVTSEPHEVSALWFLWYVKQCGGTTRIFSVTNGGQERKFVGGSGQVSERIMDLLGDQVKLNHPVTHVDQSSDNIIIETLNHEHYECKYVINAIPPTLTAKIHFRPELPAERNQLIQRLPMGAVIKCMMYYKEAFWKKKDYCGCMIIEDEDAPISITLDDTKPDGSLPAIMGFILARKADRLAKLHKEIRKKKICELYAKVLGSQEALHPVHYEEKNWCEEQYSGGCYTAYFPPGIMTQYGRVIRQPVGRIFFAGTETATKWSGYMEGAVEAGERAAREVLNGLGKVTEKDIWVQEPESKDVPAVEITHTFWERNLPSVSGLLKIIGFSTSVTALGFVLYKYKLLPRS

MAO-B [2] = target: T2, MAO-B (Homo sapiens, UniProt P27338); conditions: cited from earlier work
T2 sequence (P27338 1-520): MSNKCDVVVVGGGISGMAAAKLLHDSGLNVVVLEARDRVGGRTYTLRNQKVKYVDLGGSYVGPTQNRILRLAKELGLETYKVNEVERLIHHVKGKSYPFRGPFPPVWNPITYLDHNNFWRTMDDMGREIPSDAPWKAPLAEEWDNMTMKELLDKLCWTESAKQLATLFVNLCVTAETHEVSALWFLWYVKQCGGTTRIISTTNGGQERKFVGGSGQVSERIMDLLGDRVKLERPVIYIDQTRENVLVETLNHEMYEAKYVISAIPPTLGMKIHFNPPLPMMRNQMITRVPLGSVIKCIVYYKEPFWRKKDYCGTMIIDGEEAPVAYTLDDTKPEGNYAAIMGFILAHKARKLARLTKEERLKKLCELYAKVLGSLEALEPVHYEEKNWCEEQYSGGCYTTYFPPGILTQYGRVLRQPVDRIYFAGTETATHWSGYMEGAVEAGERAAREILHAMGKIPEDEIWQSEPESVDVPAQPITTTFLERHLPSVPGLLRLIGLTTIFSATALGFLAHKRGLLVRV

MAO-B [3] = target: T2, MAO-B; experiment: MAO-Glo luminescent assay, MAO-B inhibition; type: biochemical; conditions: 1 hour at room temperature, compared among five alkaloids
Source text: (§1) This example describes experiments for determining monoamine oxidase (MAO) inhibition for isomyosmine and other alkaloids. MAOs are enzymes located on the outer membrane of mitochondria and are involved in the catabolism of monoamine neurotransmitters. There are two well-characterized isoenzymes: MAO-A, which predominantly catabolizes serotonin and norepinephrine, and MAO-B, which preferentially catabolizes benzylamine and phenylethylamine. Dopamine and tyramine are metabolized by both isoforms.
(§2) To detect the activity of MAO, a luminescent method (MAO-Glo Assay kit, from Promega, Cat #V1401) was used. In this method, a MAO substrate (a derivative of beetle luciferin provided in the kit) is mixed with the compound to be tested (in this case, myosmine and control compounds). Then, the MAO enzymes (either A or B, purchased separately) are added to the mixture and incubated with the reaction for 1 hour at room temperature. The MAO enzymes, if not inhibited by the test compound, will convert the substrate into methyl ester luciferin. Finally, a luciferin detection reagent (provided by the kit) is added (20 minutes at room temperature) to stop the MAO reaction and convert methyl ester luciferin into D-luciferin. […] The luminescent signal is measured and recorded using a luminometer. […]

[4] = Oxygen saturation in individuals after oral administration; type: in vivo; conditions: fourteen individuals, one hour after oral administration, 100-300 mg depending on body weight
Source text: Increasing oxygen saturation levels is believed to make isomyosmine particularly effective for treating substance addictions, including tobacco/nicotine addictions, as well as addictions to heroin, cocaine, opioids, methadone, d-methamphetamine, barbiturates, alcohol, benzodiazepines, amphetamines, or buprenorphine. For example, substances such as cocaine are known to cause blood vessels to constrict, resulting in increased heartrate and blood pressure and increased stress on the heart's ability to circulate blood and oxygen through the body. Increasing oxygen saturation levels may, among other things, counteract these types of effects associated with substance abuse by increasing blood oxygen levels, aiding in the treatment of the underlying addiction.

MAO-A [5] = target: T1, MAO-A; experiment: MAO-Glo luminescent assay, MAO-A inhibition; type: biochemical
Source text: as §1, §2

Structure (SMILES)	dopamine levels (MPTP-induced toxicity)	decrease in dopamine metabolite levels induced by MPTP (MPTP-induced toxicity)	MAO inhibitory effects against MAO-A (MAO-A [1])	MAO inhibitory effects against MAO-B (MAO-B [2])	other results
c1ccc(-c2ccncc2)cc1 [4-phenylpyridine]	no significant effect	prevented the decrease			
c1cncc([C@@H]2CCCCN2)c1 [anabasine]			exhibited MAO inhibitory effects	exhibited MAO inhibitory effects	
C1=CCC(c2cccnc2)NC1 (stereo not drawn) [anatabine]			exhibited MAO inhibitory effects	exhibited MAO inhibitory effects	
C1=NC(c2cccnc2)CC1 (stereo not drawn) [isomyosmine, 3-(3,4-dihydro-2H-pyrrol-2-yl)-pyridine]					inhibition of the activity of MAO-B (in words, FIG. 2) (MAO-B [3]): potent inhibitor; inhibition of the activity of MAO-B (in words, FIG. 2) (MAO-B [3]; listed as Isomyosmine): most potent among the five alkaloids tested; oxygen saturation (%) [4]: dramatically increase; inhibition at 2000 µM (MAO-A [5]; 2 mM concentration (2,000 micromolar)): ~50%; inhibition of the enzymatic activity of MAO-A (in words, curve position in FIG. 1) (MAO-A [5]; 1 hour at room temperature, compared among five alkaloids): most potent of the five; also recorded: potent inhibitor
CN1CCCC1c1cccnc1 (stereo not drawn) [nicotine]	no significant effect	prevented the decrease			
c1cncc([C@@H]2CCCN2)c1 [nornicotine]			exhibited MAO inhibitory effects	exhibited MAO inhibitory effects	

— patent US11331310B2, “Method of treating cocaine addiction” (MyMD Pharmaceuticals (Florida), Inc., priority 2015, dated 2022)
